# Results taken from PMC4764201, “High Throughput Screen for Escherichia coli Twin Arginine Translocation (Tat) Inhibitors” (PLoS ONE, 2016).
# Key:
# E. coli MC4100(DE3) = test: Cell growth (optical density A500) under Tat++ conditions; type: cell-based, Escherichia coli; conditions: Tat++ conditions, concentration-dependent, 8 h 25°C
# Procedure: Fig 4 Effect of Oxidative Phosphorylation Inhibitors on In Vivo Tat Transport and Sensitivity of Fluorescence Detection on Plates. (A) Effect of oxidative phosphorylation inhibitors on cell growth and mCherry fluorescence under Tat^++ conditions. Cells producing spTorA-mCherry-SsrA under Tat^++ conditions were grown at 25°C for 8 h in the presence of the indicated respiratory inhibitors. After overnight incubation at 4°C, optical densities (upper panel; A500) and total mCherry cellular fluorescence intensities (lower panel; EX = 587 nm, EM = 610 nm) were measured (n = 3). Nigericin (N; 50 μM) is a H^+/K^+ exchanger, which collapses the ΔpH gradient. Valinomycin (V; 50 μM) is a K^+ ionophore, which collapses the Δψ. NaSCN (SCN; 50 mM) collapses the Δψ. NaN3 (N3; 0.1%) inhibits the cytochrome bo3 terminal oxidase. (B) Effect of NaSCN concentration on cell density and total mCherry cellular fluorescence. Measurements were made after incubating cells overnight at 4°C (n = 3). (C) Calibration and sensitivity of mCherry fluorescence detection in 384-well plates. Overnight cultures of E. coli MC4100(DE3) cells were diluted to A500 = 0.25, 0.2, 0.15, 0.10 and 0.05, and aliquoted into 384-well plates. The spTorA-mCherry-SsrA and TatABC proteins were induced together or neither were induced, as indicated. The cells were incubated at 25°C for 8 hours, and stored overnight at 4°C. Optical densities (upper panel) and mCherry fluorescence intensities (lower panel) were determined with a BMG Polarstar Omega plate reader (at 500 nm for absorbance; EX = 584 nm, EM = 620 nm for fluorescence). For comparison, the absorbance and fluorescence intensities from purified spTorA-mCherry-H6 (30, 25, 20, 15, 10 and 5 nM) are also shown (n = 3 plates, 16 wells/plate). (D) Simulated hits on 384-well plates. Using the approach described in (C), cells (A500 = 0.15) were grown on plates under the indicated conditions, and then fluorescence intensities were measured. spTorA-mCherry-SsrA was used for conditions II-IV. spTorA-mCherry-H6 was used for a minus SsrA control (I; 100%). The SsrA tag decreased the mCherry fluorescence intensity (II; 63±14%), consistent with a decrease in cytoplasmic mCherry concentration due to SsrA-dependent degradation.
# The plates containing cells and dispersed test compounds were grown with shaking (200 rpm) at 25°C for 8 h. Plates were individually mounted, not stacked, on a hollow plastic platform, allowing adequate air circulation. Following the 8 h incubation, plates were transferred to 4°C for 16 h. Each plate was covered with an empty plate to prevent condensation on the lid. […] Following the incubation, plates were read using a BMG Polarstar Omega plate reader (BMG Labtech, Ortenberg, Germany) to determine optical densities (A500) and mCherry fluorescence intensities (EX = 584 nm, EM = 620 nm).
# Supplementary file pone.0149659.s005.tiff: S5 Fig Effect of P. aeruginosa Tat Inhibitors on E. coli Cell Growth and Tat Transport. The concentration-dependent effects of Bay 11–7082 (A) and N-phenylmaleimide (B) on bacterial growth (black) and in vivo Tat transport of spTorA-mCherry-SsrA (red) was determined under Tat^++ conditions (top). An overnight culture of MC4100(DE3) (pTorA-mCherry-SsrA, pTatABC-Duet1) was diluted 1:50 in 10 mL fresh LB broth with appropriate antibiotics and dispensed (2 mL) into 5 tubes, and growth was continued at 37°C with shaking at 200 rpm until A500 ≈ 0.5. The indicated concentrations of the two compounds were added, and the expression of spTorA-mCherry-SsrA and TatABC were induced. Cultures were grown for another 8 h at 25°C. Cell growth was assayed by A500, and cells (1 mL, A500 = 1.0) were fractionated into cytoplasmic (C) and periplasmic (P) fractions as described. Transport of spTorA-mCherry-SsrA was assayed by in-gel fluorescence of mCherry (upper gels) and Western blot analyses (middle gels). […]
# [1] = test system: Pseudomonas aeruginosa Tat machinery; design: method as in PMID 23006747; conditions: cited from earlier work
# [2] = test system: E. coli Tat machinery (IMVs containing overproduced TatABC); test: In vitro Tat transport assay of pre-SufI into IMVs, NADH as energy source; type: biochemical, Escherichia coli; conditions: hit compound 100 μM
# [3] = biological target: E. coli Tat machinery (IMVs containing overproduced TatABC) (Escherichia coli, UniProt P69423+P69425+P69428); test: as above; type: biochemical; conditions: hit compound 100 μM
# Sequence of E. coli Tat machinery (IMVs containing overproduced TatABC) (Escherichia coli, UniProt P69423+P69425+P69428) (P69423 2-258): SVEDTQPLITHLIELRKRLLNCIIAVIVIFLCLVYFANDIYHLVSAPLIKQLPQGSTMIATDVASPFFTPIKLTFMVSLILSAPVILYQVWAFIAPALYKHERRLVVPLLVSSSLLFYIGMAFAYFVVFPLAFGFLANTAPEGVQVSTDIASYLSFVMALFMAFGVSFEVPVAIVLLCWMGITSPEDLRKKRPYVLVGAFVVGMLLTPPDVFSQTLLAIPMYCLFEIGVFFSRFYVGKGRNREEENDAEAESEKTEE
# Sequence of E. coli Tat machinery (IMVs containing overproduced TatABC) (Escherichia coli, UniProt P69423+P69425+P69428) (P69425 whole entry): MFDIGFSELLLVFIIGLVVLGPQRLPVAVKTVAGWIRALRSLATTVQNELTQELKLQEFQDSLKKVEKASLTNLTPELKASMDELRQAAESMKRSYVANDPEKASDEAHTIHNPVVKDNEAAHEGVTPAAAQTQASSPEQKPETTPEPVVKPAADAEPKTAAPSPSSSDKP
# Sequence of E. coli Tat machinery (IMVs containing overproduced TatABC) (Escherichia coli, UniProt P69423+P69425+P69428) (P69428 whole entry): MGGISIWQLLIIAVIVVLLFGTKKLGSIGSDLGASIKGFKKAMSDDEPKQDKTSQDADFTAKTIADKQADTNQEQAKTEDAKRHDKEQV
SMILES,effect on E. coli growth (E. coli MC4100(DE3)),activity on the Pseudomonas aeruginosa Tat machinery [1],outcome of NADH-dependent in vitro Tat transport screen (survival = visible inhibition of Tat transport) [2],outcome of NADH-dependent in vitro Tat transport screen (survival = visible inhibition of Tat transport) [3]
Cc1ccc(S(=O)(=O)/C=C/C#N)cc1 [Bay 11–7082],inhibited E. coli growth,identified as inhibitors,–,–
"Oc1cc(Cl)ccc1Oc1ccc(Cl)cc1Cl [Compound 18^NIH, 5-Chloro-2-(2,4-dichlorophenoxy)phenol]",–,–,survived,–
"N#CC1c2ccccc2-n2nncc2CN1Cc1cc(Cl)cc(Cl)c1 (stereo not drawn) [21^NIH, 5-[(3,5-dichlorophenyl)methyl]-4,6-dihydrotriazolo[1,5-a][1, 4]benzodiazepine-6-carbonitrile]",–,–,–,survived
O=C1C=CC(=O)N1c1ccccc1 [N-phenylmaleimide],inhibited E. coli growth,identified as inhibitors,–,–
